Data published in PMC6370589 (ChemMedChem, 2018).
“Also recorded” adds a separate entry of the source.

What was measured:
[1] = test system: Daoy cells; conditions: for concentration with appreciable cytotoxicity, not before 48 hours: from 48 h
[2] = test system: Daoy cells; experiment: MTS cellular metabolic viability assay, Daoy; format: cell-based
[3] = target: recombinant PLK1 kinase (Homo sapiens, UniProt P53350); experiment: PLK1 recombinant kinase LANCE TR-FRET assay; format: biochemical
[4] = test system: 8 other kinases; conditions: 1.0 μM, profile of 223 kinases; cited from earlier work
[5] = in vitro; conditions: human
[6] = test system: advanced refractory solid tumors; conditions: Phase I, single agent; cited from earlier work
[7] = test system: phosphorylated CDK1 at Tyr15; experiment: pCDK1; format: cell-based; conditions: Daoy, 24 h; for change in pCDK1(Tyr15) level vs DMSO control: 220 nM, n=3; for pCDK1 ELISA dose-response: 1 μM to 62 nM, EC50 values not determinable
[8] = target: Src family tyrosine kinase YES1; conditions: read-out: YES1 IC50; radiolabeled ATP kinase assay; cited from earlier work
[9] = test system: phosphorylated CDK1 at Tyr15; conditions: read-out: pCDK1 ELISA EC50; Daoy; previously determined; cited from earlier work
[10] = test system: WEE1; conditions: read-out: WEE1 IC50; radiolabeled ATP kinase assay; cited from earlier work
[11] = test system: ONS-76 cells; experiment: MTS cellular metabolic viability assay, ONS-76; format: cell-based; conditions: ONS-76, 72 h
[12] = target: recombinant WEE1 (Homo sapiens, UniProt P30291); experiment: WEE1 recombinant kinase TR-FRET; format: binding
Sequence of recombinant WEE1 (P30291 whole entry): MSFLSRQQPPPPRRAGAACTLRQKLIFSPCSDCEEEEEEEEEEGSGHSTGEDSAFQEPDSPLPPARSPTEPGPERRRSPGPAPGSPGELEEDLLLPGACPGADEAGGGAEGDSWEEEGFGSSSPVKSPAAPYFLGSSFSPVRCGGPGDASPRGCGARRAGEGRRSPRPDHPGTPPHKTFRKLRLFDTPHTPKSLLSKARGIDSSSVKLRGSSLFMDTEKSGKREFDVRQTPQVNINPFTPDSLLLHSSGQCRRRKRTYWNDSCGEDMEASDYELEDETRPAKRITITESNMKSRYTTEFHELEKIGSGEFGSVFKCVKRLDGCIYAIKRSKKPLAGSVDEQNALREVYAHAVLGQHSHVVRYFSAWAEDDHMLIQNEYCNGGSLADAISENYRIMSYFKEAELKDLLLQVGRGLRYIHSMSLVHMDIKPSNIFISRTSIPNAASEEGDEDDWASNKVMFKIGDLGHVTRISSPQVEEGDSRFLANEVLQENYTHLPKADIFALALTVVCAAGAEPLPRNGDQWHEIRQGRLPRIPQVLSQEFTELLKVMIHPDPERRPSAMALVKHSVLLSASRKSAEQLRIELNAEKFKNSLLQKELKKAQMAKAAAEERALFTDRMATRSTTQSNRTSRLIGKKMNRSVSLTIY

Sequence of recombinant PLK1 kinase (P53350 whole entry): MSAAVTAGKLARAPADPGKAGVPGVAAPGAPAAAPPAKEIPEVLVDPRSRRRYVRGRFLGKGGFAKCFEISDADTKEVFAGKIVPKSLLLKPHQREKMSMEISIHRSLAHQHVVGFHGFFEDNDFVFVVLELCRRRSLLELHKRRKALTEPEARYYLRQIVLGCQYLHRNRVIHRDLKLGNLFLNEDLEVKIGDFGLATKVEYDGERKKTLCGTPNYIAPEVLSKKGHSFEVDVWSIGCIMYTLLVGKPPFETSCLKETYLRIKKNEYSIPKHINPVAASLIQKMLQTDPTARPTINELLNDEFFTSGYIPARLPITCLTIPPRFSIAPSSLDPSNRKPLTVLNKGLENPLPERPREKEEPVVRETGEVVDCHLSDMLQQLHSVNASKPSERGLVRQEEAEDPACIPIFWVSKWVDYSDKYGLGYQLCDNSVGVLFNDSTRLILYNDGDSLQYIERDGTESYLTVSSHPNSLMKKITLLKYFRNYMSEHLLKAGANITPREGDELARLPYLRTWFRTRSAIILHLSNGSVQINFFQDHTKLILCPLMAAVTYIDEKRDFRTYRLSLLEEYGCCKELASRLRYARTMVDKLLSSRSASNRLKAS

Structure (SMILES): C=CCn1c(=O)c2cnc(Nc3ccc(N4CCN(C)CC4)cc3)nc2n1-c1cccc(C(C)(C)O)n1 [AZD1775, 2-allyl-1-(6-(2-hydroxypropan-2-yl)pyridin-2-yl)-6-((4-(4-methylpiperazin-1-yl)phenyl)amino)-1,2-dihydro-3H-pyrazolo[3,4-d]pyrimidin-3-one, reference compound]
- concentration with cytotoxic effects within 24 hours ([1]; 24 h): > 600 nM
- concentration with cytotoxic effects after 72 hours ([1]; 72 h): > 75 nM
- EC50 ([2]; Homo sapiens, read-out: MTS EC50 used to set the concentration range, Daoy): 150 nM
- IC50 [3]: 77.6 ± 9.3 nM
- inhibition of 8 other kinases [4]: > 80%
- EC50 at 72 h ([5]; Daoy cells): 188 ± 26 nM
- dose-limiting toxicities [6]: supraventricular tachyarrhythmia and myelosuppression
- change in pCDK1(Tyr15) level vs DMSO control [7]: statistically significant decrease in pCDK1 levels
- pCDK1 ELISA dose-response [7]: comparable effects on pCDK1 levels
- IC50 [8]: 14 nM
- EC50 [9]: 220 nM
- IC50 [10]: 5 nM

Structure (SMILES): C=CCn1c(=O)c2cnc(Nc3ccccc3)nc2n1-c1cccc(C(C)(C)O)n1 [Compound 24, 2-allyl-1-(6-(2-hydroxypropan-2-yl)pyridin-2-yl)-6-(phenylamino)-1,2-dihydro-3H-pyrazolo[3,4-d]pyrimidin-3-one]
- change in pCDK1(Tyr15) level vs DMSO control [7]: significant increases in pCDK1 levels

Structure (SMILES): C=CCn1c(=O)c2cnc(Nc3cccc(N(C)C)c3)nc2n1-c1cccc(C(C)(C)O)n1 [Compound 25, 2-allyl-6-((3-(dimethylamino)phenyl)amino)-1-(6-(2-hydroxypropan-2-yl)pyridin-2-yl)-1,2-dihydro-3H-pyrazolo[3,4-d]pyrimidin-3-one]
- change in pCDK1(Tyr15) level vs DMSO control [7]: significant increases in pCDK1 levels

Structure (SMILES): C=CCn1c(=O)c2cnc(Nc3ccc(CCN(C)C)cc3)nc2n1-c1cccc(C(C)(C)O)n1 [Compound 28, 2-allyl-6-((4-(2-(dimethylamino)ethyl)phenyl)amino)-1-(6-(2-hydroxypropan-2-yl)pyridin-2-yl)-1,2-dihydro-3H-pyrazolo[3,4-d]pyrimidin-3-one]
- concentration with some cytotoxicity within 24 hours ([1]; 24 h): 1.2 µM
- IC50 [3]: 270 ± 29 nM
- EC50 at 72 h [5]: 651 ± 16 nM
- change in pCDK1(Tyr15) level vs DMSO control [7]: statistically significant decrease in pCDK1 levels
- pCDK1 ELISA dose-response [7]: comparable effects on pCDK1 levels

Structure (SMILES): C=CCn1c(=O)c2cnc(Nc3ccc(OCCN(C)C)cc3)nc2n1-c1cccc(C(C)(C)O)n1 [Compound 29, 2-allyl-6-((4-(2-(dimethylamino)ethoxy)phenyl)amino)-1-(6-(2-hydroxypropan-2-yl)pyridin-2-yl)-1,2-dihydro-3H-pyrazolo[3,4-d]pyrimidin-3-one]
- CellTox Green dose-response / EC50 determination ([1]; 72 h, up to 2400 nM): Sigmoidal dose-response curves were not obtained; also recorded: did not display sufficient cytotoxicity for EC50 determination
- concentration with appreciable cytotoxicity, not before 48 hours [1]: > 300 nM
- MTS % effect (activity) at 600 nM, Daoy ([2]; 72 h, 600 nM): 81%
- IC50 [3]: 161 ± 10 nM
- change in pCDK1(Tyr15) level vs DMSO control [7]: statistically significant decrease in pCDK1 levels
- pCDK1 ELISA dose-response [7]: comparable effects on pCDK1 levels

Structure (SMILES): C=CCn1c(=O)c2cnc(Nc3ccc(N4CCN(C)CC4)cc3)nc2n1-c1cccc(C(C)(C)O)c1 [Compound 31, 2-allyl-1-(3-(2-hydroxypropan-2-yl)phenyl)-6-((4-(4-methylpiperazin-1-yl)phenyl)amino)-1,2-dihydro-3H-pyrazolo[3,4-d]pyrimidin-3-one]
- MTS % effect at 1.16 μM, ONS-76 [11]: 57%
- concentration with appreciable cytotoxicity, not before 48 hours [1]: > 300 nM
- IC50 [3]: 394 ± 37 nM
- change in pCDK1(Tyr15) level vs DMSO control [7]: did not cause a significant reduction in pCDK1 levels

Structure (SMILES): C=C(C)c1cccc(-n2[nH]c(=O)c3cnc(Nc4ccc(N5CCN(C)CC5)cc4)nc32)n1 [Compound 34, 6-((4-(4-methylpiperazin-1-yl)phenyl)amino)-1-(6-(prop-1-en-2-yl)pyridin-2-yl)-1,2-dihydro-3H-pyrazolo[3,4-d]pyrimidin-3-one]
- IC50 [12]: 190 ± 12 nM
